Experimental findings from patent US6770593B1, “Fertilizer” (Mandops (UK) Limited, priority 1999, dated 2004) are described below.

Holding throughout (type): in vivo
Experiment [1] concerns Powdery Mildew. The experiment in a line: Powdery mildew on spring barley, with chlormequat (Table E1). To be noted: applied at 3 leaves stage, CCC 1.25 l/ha, ATS 1.25 l/ha, KS 20 g/ha.
The subject of experiment [2] is Powdery Mildew. Kind of experiment: Powdery mildew on spring barley, with chlormequat at T1 and T2 (Table E2). The note with it: applied at T1 (3 leaves stage) & T2 (prior to start of stem extension), CCC 0.8 l/ha, ATS 0.8 l/ha, KS 20 g/ha.
Experiment [3] has as its system Spring Barley. The experiment in a line: Tillers of spring barley, with chlormequat at T1 and T2 (Table E2). To be noted: applied at T1 (3 leaves stage) & T2 (prior to start of stem extension), CCC 0.8 l/ha, ATS 0.8 l/ha, KS 20 g/ha.
For experiment [4], the system named is Spring Barley. The experiment in a line: Growth of spring barley, with chlormequat (Table E1). The note with it: applied at 3 leaves stage, CCC 1.25 l/ha, ATS 1.25 l/ha, KS 20 g/ha.

For the compound `C[N+](C)(C)CCCl.[Cl-]` [CCC, Chlormequat], in the experiment with Powdery Mildew [1], the “Powdery Mildew (%) at +15 days” value came out at 15%. Besides, in the experiment with Powdery Mildew [2], the “Powdery Mildew (%) at +12 days” value was 8%, the “Powdery Mildew (%) at +15 days” value came to 8% and the “Powdery Mildew (%) at +18 days” value is 10%. Further, the “Number of Tillers Initiated per Plant (mean of 10 plants)” value in the experiment on Spring Barley [3] is given as 3.5. Besides, in the experiment with Spring Barley [4], the “Above Ground Dry Weight (g) Total of 10 plants” value came out at 3.7 g, the “Above Ground Fresh Weight (g) Total of 10 plants” value was 34.0 g and the “Amount of Rooting (0-9) Mean of 10 plants” value worked out at 5.5.
